Several values for one entry are separate records, joined by “and”; a condition that tells them apart may be missing. Identical values can stand only once.
Assays:
T lymphoma Jurkat cells = assay: Cytotoxicity assay (CellTiter-Glo, 72 h), Jurkat; format: cell-based; settings: raw data (replicates)
Procedure: (§1) Jurkat cells were cultured in RPMI1640 medium supplemented with 10% foetal bovine serum, penicillin (50 U/ml), streptomycin (50 μg/ml), and Glutamax. SKOV-3 cells were cultured in DMEM medium supplemented with 10% fetal bovine serum, penicillin (50 U/ml), and streptomycin (50 μg/ml). MESO-1 cells were cultured in RPMI1640 medium supplemented with 10% fetal bovine serum, penicillin (50 U/ml), and streptomycin (50 μg/ml). All cell lines were seeded in a 384-well plate at a density of 1000 cells/well in 20 μl of media and incubated at 37 °C in a humidified incubator with 5% CO2. After 4 h, 2-fold dilution samples resolved in DMSO were added to the cell culture at the concentration of 0.5% (0.1 μl) and incubated for 72 h. Cell viabilities were measured using a CellTiter-Glo luminescent cell viability assay and EnVision multilabel plate reader.

[1] = Cytotoxicity assay (CellTiter-Glo, 72 h), Jurkat; format: cell-based; settings: human, Jurkat cells (T lymphoma), raw data (replicates); for viability at 72 h, 9.53674e-05 uM: conc 9.53674e-5 uM; for viability at 72 h, 0.000190735 uM: conc 0.000190735 uM; for viability at 72 h, 0.00038147 uM: conc 0.00038147 uM; for viability at 72 h, 0.000762939 uM: conc 0.000762939 uM; for viability at 72 h, 0.00152588 uM: conc 0.00152588 uM; for viability at 72 h, 0.00305176 uM: conc 0.00305176 uM; for viability at 72 h, 0.00610352 uM: conc 0.00610352 uM; for viability at 72 h, 0.012207 uM: conc 0.012207 uM; for viability at 72 h, 0.0244141 uM: conc 0.0244141 uM; for viability at 72 h, 0.0488281 uM: conc 0.0488281 uM; for viability at 72 h, 0.0976562 uM: conc 0.0976562 uM; for viability at 72 h, 0.195312 uM: conc 0.195312 uM; for viability at 72 h, 0.390625 uM: conc 0.390625 uM; for viability at 72 h, 0.78125 uM: conc 0.78125 uM; for viability at 72 h, 1.5625 uM: conc 1.5625 uM; for viability at 72 h, 3.125 uM: conc 3.125 uM; for viability at 72 h, 6.25 uM: conc 6.25 uM; for viability at 72 h, 12.5 uM: conc 12.5 uM; for viability at 72 h, 25 uM: conc 25 uM; for viability at 72 h, 50 uM: conc 50 uM
Procedure: as §1

SMILES	Jurkat viability (%) (T lymphoma Jurkat cells; conc 9.53674e-5 uM)	Jurkat viability (%) (T lymphoma Jurkat cells; conc 0.000190735 uM)	Jurkat viability (%) (T lymphoma Jurkat cells; conc 0.00038147 uM)	Jurkat viability (%) (T lymphoma Jurkat cells; conc 0.000762939 uM)	Jurkat viability (%) (T lymphoma Jurkat cells; conc 0.00152588 uM)	Jurkat viability (%) (T lymphoma Jurkat cells; conc 0.00305176 uM)	Jurkat viability (%) (T lymphoma Jurkat cells; conc 0.00610352 uM)	Jurkat viability (%) (T lymphoma Jurkat cells; conc 0.012207 uM)	Jurkat viability (%) (T lymphoma Jurkat cells; conc 0.0244141 uM)	Jurkat viability (%) (T lymphoma Jurkat cells; conc 0.0488281 uM)	Jurkat viability (%) (T lymphoma Jurkat cells; conc 0.0976562 uM)	Jurkat viability (%) (T lymphoma Jurkat cells; conc 0.195312 uM)	Jurkat viability (%) (T lymphoma Jurkat cells; conc 0.390625 uM)	Jurkat viability (%) (T lymphoma Jurkat cells; conc 0.78125 uM)	Jurkat viability (%) (T lymphoma Jurkat cells; conc 1.5625 uM)	Jurkat viability (%) (T lymphoma Jurkat cells; conc 3.125 uM)	Jurkat viability (%) (T lymphoma Jurkat cells; conc 6.25 uM)	Jurkat viability (%) (T lymphoma Jurkat cells; conc 12.5 uM)	Jurkat viability (%) (T lymphoma Jurkat cells; conc 25 uM)	viability at 72 h, 9.53674e-05 uM [1] [%]	other results
COC1CC2CCC(C)C(O)(O2)C(=O)C(=O)N2CCCCC2C(=O)OC(C(C)CC2CCC(O)C(OC)C2)CC(O)CC(=O)C(C)C=C(C)C(O)CC(=O)C(C)CC(C)C=CC=CC=C1C (stereo not shown) [Compound 13]	112.6% and 105.4%	101.3% and 101.6%	104.4% and 104.8%	96.6% and 102.2%	101.0% and 107.9%	103.0% and 101.6%	107.7% and 103.5%	102.1% and 101.9%	102.7% and 105.0%	92.1% and 89.3%	67.5% and 74.1%	42.7% and 42.9%	37.1% and 36.6%	31.2% and 32.9%	32.3	28.8% and 27.1%	32.0% and 30.5%	29.9%	25.3% and 24.9%	100	Jurkat viability (%) (T lymphoma Jurkat cells; conc 50 uM): 1.7% and 1.8%; viability at 72 h, 0.000190735 uM [1]: 100%; viability at 72 h, 0.00038147 uM [1]: 108%; viability at 72 h, 0.000762939 uM [1]: 103%; viability at 72 h, 0.00152588 uM [1]: 98.1%; viability at 72 h, 0.00305176 uM [1]: 102%; viability at 72 h, 0.00610352 uM [1]: 100%; viability at 72 h, 0.012207 uM [1]: 99.4%; viability at 72 h, 0.0244141 uM [1]: 103%; viability at 72 h, 0.0488281 uM [1]: 91.3%; viability at 72 h, 0.0976562 uM [1]: 69.5%; viability at 72 h, 0.195312 uM [1]: 47.2%; viability at 72 h, 0.390625 uM [1]: 37.5%; viability at 72 h, 0.78125 uM [1]: 31.7%; viability at 72 h, 1.5625 uM [1]: 30.7%; viability at 72 h, 3.125 uM [1]: 30.2%; viability at 72 h, 6.25 uM [1]: 29.2%; viability at 72 h, 12.5 uM [1]: 30.8%; viability at 72 h, 25 uM [1]: 24.7%; viability at 72 h, 50 uM [1]: 2.2%
CO[C@H]1C[C@@H]2CC[C@@H](C)[C@@](O)(O2)C(=O)C(=O)N2CCCC[C@H]2C(=O)O[C@H]([C@H](C)C[C@@H]2CC[C@@H](O)[C@H](OC)C2)CC(=O)[C@H](C)/C=C(\C)[C@@H](O)CC(=O)[C@H](C)C[C@H](C)/C=C/C=C(C)/C=C/1C [Compound 2, 27-demethoxy-19-methyl rapamycin]	102.6% and 90.2%	99.7% and 100.1%	102.4% and 92.6%	99.9% and 100.9%	104.7% and 99.5%	96.2% and 98.5%	101.1%	91.7%	102.1%	95.8% and 99.2%	102.7% and 105.1%	95.3% and 96.4%	104.4%	92.4% and 89.9%	98.7	91.9% and 84.9%	85.7% and 88.3%	78.8% and 80.3%	27.8% and 28.9%	101	viability at 72 h, 0.000190735 uM [1]: 101%; viability at 72 h, 0.00038147 uM [1]: 105%; viability at 72 h, 0.000762939 uM [1]: 110%; viability at 72 h, 0.00152588 uM [1]: 104%; viability at 72 h, 0.00305176 uM [1]: 96%; viability at 72 h, 0.00610352 uM [1]: 102%; viability at 72 h, 0.012207 uM [1]: 103%; viability at 72 h, 0.0244141 uM [1]: 98.4%; viability at 72 h, 0.0488281 uM [1]: 101%; viability at 72 h, 0.0976562 uM [1]: 98.8%; viability at 72 h, 0.195312 uM [1]: 97.6%; viability at 72 h, 0.390625 uM [1]: 103%; viability at 72 h, 0.78125 uM [1]: 95.4%; viability at 72 h, 1.5625 uM [1]: 97.9%; viability at 72 h, 3.125 uM [1]: 90.3%; viability at 72 h, 6.25 uM [1]: 93.3%; viability at 72 h, 12.5 uM [1]: 79.6%; viability at 72 h, 25 uM [1]: 26.4%; viability at 72 h, 50 uM [1]: 0.7%
